The values below come from PMC11374660, “The novel family of Warbicin® compounds inhibits glucose uptake both in yeast and human cells and restrains cancer cell proliferation” (Frontiers in Oncology, 2024).

Usually pIC50 stands for the negative decadic logarithm of the IC50, by convention in mol/L. One may read the pKi as the negative decadic logarithm of the Ki, by convention in mol/L.

pIC50, pKi: −log10 of the molar value.

Experiment [1] concerns hxk2Δ hxk1Δ GLK1 yeast cells. The experiment can be described thus: Sugar uptake in hxk2Δ hxk1Δ GLK1 yeast cells. The class given is cell-based, S. cerevisiae. Particulars: 250 µM CCCP or 50 µM WBC-A 10 min prior; 100 mM maltose with the tracer. The method, then: (§1) Zero-trans uptake of radioactively labeled [U-^14C]glucose, [U-^14C]fructose or [U-^14C]galactose by S. cerevisiae cells was determined in accordance with previous studies ([45], [75]). Cells were grown on different carbon sources depending on the experiment. For measuring glucose uptake activity in the tps1Δ and tps1Δ hxtΔ strains, cells were grown on YP medium containing 325 mM glycerol (measurement of 10 s). Typically, for compound characterization and kinetic studies in wild type and tps1Δ strains, cells were (pre)grown on Complete Synthetic medium supplemented with 110 mM galactose (measurement of 10 s). In the experiments on the influence of hexokinase activity on the sugar uptake rate, the measurement duration was shortened to 5 s and cells were always grown on YP medium containing 325 mM glycerol and 430 mM ethanol. After harvesting, cells were washed twice with ice-cold 25 mM MES-buffer pH 6, and resuspended in their respective medium without sugar to a final concentration of 45 mg (wet weight)/mL. The amount of added tracer was estimated to give a response close to at least 1000 counts per min in order to adequately counter background noise. Cells were first preincubated for 10 min at 30°C with the compound to acclimate the cells to the temperature and to allow adequate interaction with the compound prior to uptake. Next, hexose sugar was mixed with the cell suspension, which was then incubated at 30°C for 5 or 10 s, depending on the experiment, after which the cells were rapidly filtered over a glass microfiber filter (Whatman GF/C) and washed three times with ice-cold dH2O. The loaded filter was transferred to a scintillation vial containing 3 mL liquid scintillation cocktail (Ultima-Flo M, Perkin Elmer) and counted using the Hidex 300 SL. Three blank measurements per strain were typically included to account for background signal, for which the cells were first quenched before adding the radioactive label.

The test system of experiment [2] is glucose uptake by wild type yeast cells. Briefly: Zero-trans uptake of radioactive glucose in wild type yeast cells. It is filed as cell-based, S. cerevisiae. As to the method: as §1
Experiment [3] has as its system glucose uptake by tps1Δ yeast cells. The experiment can be described thus: Zero-trans uptake of radioactive glucose in tps1Δ yeast cells. It is filed as cell-based, S. cerevisiae. As to conditions: tps1∆ cells, 2.5 mM glucose; read-out: IC50 values for 2.5 mM glucose uptake in tps1∆ cells. As to the method: as §1
The test system of the next experiment is yeast tps1Δ strain. Briefly: Growth (rescue) of the yeast tps1Δ strain on galactose with or without glucose. It is filed as cell-based, S. cerevisiae. As to conditions: 2.5 mM glucose. The method, then: Growth curves were made by measuring OD595 in a 96-well plate using the Multiskan™ FC Microplate Photometer (Thermo Fisher Scientific). Typically, for tps1Δ rescue experiments, cells were (pre)grown in Complete Synthetic medium containing 110 mM galactose. Compounds were always added 10 min prior to glucose addition to ensure maximal interaction between the cells and compounds. Cells originating from the preculture were harvested, washed in medium without sugar, after which they were resuspended to an OD of 0.1 in 200 µL of the appropriate medium. At least three technical replicates were included per condition. OD595 was measured at 30°C every 30 min with a 10-min shaking interval.

Experiment [4] has as its system A549 lung adenocarcinoma cells. The experiment can be described thus: Proliferation of A549 lung adenocarcinoma cells. The class given is cell-based, human. The method, then:
For both adherent A549 and MCF10A H-RAS^V12 cell lines, growth curves were established using the IncuCyte® ZOOM technology. By collecting phase contrast images, the IncuCyte® software provides a calculated confluency percentage from which growth curves can be deducted. The cell number/density was measured by calculating the confluency of phase objects (cells) sticking on the bottom of the well. Cells were seeded at a density of 1000 - 1500 cells/well in a Nunc-Edge™ 96-well plate (Thermo Fisher Scientific) and growth was typically measured over 3 to 5 days. For the measurement of apoptosis induction using the MCF10A H-RAS^V12 cell line, the IncuCyte® Caspase-3/7 green dye was added to the medium in the recommended concentration at the beginning of the growth curve experiment. Apoptosis was detected by taking fluorescent images by excitation at 488 nm followed by IncuCyte® software analysis. Cell growth of the KMS-12-PE multiple myeloma cell line, which grows in suspension, was measured by manual cell counting. Cells were initially seeded at a density of 10^4 cells/well and incubated for 4 days after which the cell number was counted. For all cell lines, the same medium used for pregrowth was also used for the growth curve experiment, albeit with different glucose concentrations depending on the experimental design. With compound administration, the final concentration of DMSO never exceeded 0.1%. Typically, at least four technical repeats were included per condition.

Turning to `N#CC(C#N)=NNc1cccc(Cl)c1` [CCCP, reference compound], in experiment [1], the “fructose uptake at tracer concentration” value is “not that of fructose” and the “glucose uptake at tracer concentration” value is “lowered the glucose uptake rate”.
Consider `CCN(C(=O)CSc1nc(C)nc2scc(-c3cccs3)c12)C1CCS(=O)(=O)C1` (stereo not shown) [WBC-2C], for which the “type of inhibition of glucose uptake (Lineweaver-Burk)” value in experiment [2] was “mixed type of inhibition”. Also, the pIC50 is 5.70 in experiment [2] (radioactive glucose, 10 s, read-out: IC50 for inhibition of 2.5 mM glucose uptake) and 5.70 in experiment [3]. Besides, in experiment [2] (read-out: Ki (Dixon plot) for glucose uptake), the pKi is 5.84. The “Rescue of the tps1∆ strain on 2.5 mM glucose at 100 µM” value in the experiment with yeast tps1Δ strain (100 µM) is listed as “Yes”. Further, the “Minimal rescue concentration for growth of tps1∆ cells on 2.5 mM glucose” value in the experiment on yeast tps1Δ strain is 1.562 µM. In experiment [4] (50 µM, RPMI 1 mM glucose), the “Selected from primary screen for growth inhibition of A549 cells at 50 µM” value was “Yes”. In addition, in experiment [4] (ratio of IC50 on 10 mM and 1 mM glucose, compared to WBC-A), the “Selected for having an IC50 ratio (10 mM glucose : 1 mM glucose) of A549 growth higher than WBC-A” value is “Lower IC50 ratio”.
